Source: patent US9611248B2, “Chemical compounds” (Syngenta Participations AG, priority 2013, dated 2017)

Tested on: a variety of test species
Assay: Post-emergence herbicidal activity
Format: in vivo
Parameters: key to ABUTH (Abutilon theophrasti) damage score / AMARE (Amaranthus retroflexus) damage score / ALOMY (Alopecurus myosuroides) damage score / ECHCG (Echinochloa crus-galli) damage score / ZEAMX (Zea mays) damage score / SOLNI (Solanum nigrum) damage score: 0 = no damage to plant, 5 = total damage to plant
Conditions: rate 1000 g/ha, evaluated after 13 days
Method: Seeds of a variety of test species were sown in standard soil in pots. After 8 days cultivation (post-emergence) under controlled conditions in a glasshouse (at 24/16° C., day/night; 14 hours light; 65% humidity), the plants were sprayed with an aqueous spray solution derived from the formulation of the technical active ingredient in acetone/water (50:50) solution containing 0.5% Tween 20 (polyoxyethelyene sorbitan monolaurate, CAS RN 9005-64-5). The test plants were then grown in a glasshouse under controlled conditions (at 24/16° C., day/night; 14 hours light; 65% humidity) and watered twice daily. After 13 days, the test was evaluated (5=total damage to plant; 0=no damage to plant, NC=not captured).

Row | SMILES | ABUTH (Abutilon theophrasti) damage score | ALOMY (Alopecurus myosuroides) damage score | AMARE (Amaranthus retroflexus) damage score | ECHCG (Echinochloa crus-galli) damage score | SETFA (Setaria faberi) damage score | ZEAMX (Zea mays) damage score | SOLNI (Solanum nigrum) damage score
1 | CCC1=C(Br)C(O)N(c2cc(C(C)(C)C#N)ncn2)C1=O (racemic) [CB2] | 3 | 1 | 3 | 1 | 0 | 0 | –
2 | COC1=C(C)C(=O)N(c2cc(Cl)ncn2)C1O (racemic) [CD2] | 2 | 3 | 5 | 3 | 4 | 1 | –
3 | COC1=C(C)C(=O)N(c2cc(C(C)(C)C)ncn2)C1O (racemic) [CD3] | 5 | 5 | 5 | 5 | 5 | 3 | –
4 | COC1=C(C)C(=O)N(c2cc(C(F)(F)F)ncn2)C1O (racemic) [CD4] | 5 | 5 | 3 | 5 | 5 | 1 | –
5 | COC1=C(C)C(=O)N(c2cc(Br)ncn2)C1O (racemic) [CD5] | 3 | 1 | 4 | 1 | 2 | 0 | –
6 | CCN(C)c1cc(N2C(=O)C(C)=C(OC)C2O)ncn1 (racemic) [CD6] | 3 | 2 | 3 | 0 | 2 | 0 | –
7 | COC1=C(C)C(=O)N(c2cc(N(C)C)ncn2)C1O (racemic) [CD7] | 2 | 0 | 2 | 0 | 0 | 0 | –
8 | COC1=C(C)C(=O)N(c2cc(C(C)(C)C#N)ncn2)C1O (racemic) [CD8] | 5 | 5 | 5 | 5 | 5 | 3 | –
9 | COC1=C(Br)C(=O)N(c2cc(C(C)(C)C)ncn2)C1O (racemic) [CE1] | 4 | 2 | 5 | 3 | 4 | 1 | –
10 | COC1=C(Cl)C(=O)N(c2cc(C(C)(C)C)ncn2)C1O (racemic) [CF1] | 4 | 1 | 2 | 4 | 4 | 1 | –
11 | CC1=C(Cl)C(O)N(c2nccc(C(C)(C)C)n2)C1=O (racemic) [DA1] | 4 | 4 | 3 | 4 | 5 | 0 | –
12 | COC1=C(C)C(=O)N(c2nccc(C(C)(C)C)n2)C1O (racemic) [DD1] | 4 | 4 | 4 | 5 | 4 | 1 | –
13 | COC1=C(C)C(=O)N(c2nccc(N(C)C)n2)C1O (racemic) [DD2] | 0 | 0 | 1 | 1 | 0 | 1 | –
14 | COC1=C(C)C(=O)N(c2ncc(Cl)c(N(C)C)n2)C1O (racemic) [DD3] | 3 | 2 | 4 | 2 | 6 | 1 | –
15 | CCO/C=C\c1cnc(N2C(=O)C(C)=C(Cl)C2O)cc1C(F)(F)F (stereo not drawn) [AA1] | 5 | 3 | 5 | 5 | 5 | 1 | –
16 | CC(C)=C(C)c1cnc(N2C(=O)C(C)=C(Cl)C2O)cc1C(F)(F)F (stereo not drawn) [AA2] | 4 | 2 | 5 | 2 | 4 | 2 | –
17 | CC1=C(Cl)C(O)N(c2nccc(C(F)(F)F)c2F)C1=O (stereo not drawn) [AA4] | 1 | 1 | 1 | 0 | 1 | 2 | –
18 | CC1=C(Cl)C(O)N(c2cc(C(C)C)c(C(=O)OC(C)C)cn2)C1=O (stereo not drawn) [AA9] | 4 | 2 | 4 | 1 | 1 | 1 | –
19 | CC1=C(Cl)C(O)N(c2cc(C)c(Br)cn2)C1=O (stereo not drawn) [AA10] | 0 | 1 | 3 | 1 | 2 | 1 | –
20 | CC1=C(Cl)C(O)N(c2cc(C)ccn2)C1=O (stereo not drawn) [AA13] | 5 | 3 | 4 | 4 | 4 | 0 | –
21 | CC1=C(Cl)C(O)N(c2cc(Cl)c(Cl)cn2)C1=O (stereo not drawn) [AA16] | 0 | 1 | 0 | 1 | 3 | 1 | –
22 | CC1=C(Cl)C(O)N(c2cc(C#N)ccn2)C1=O (stereo not drawn) [AA20] | 1 | 1 | 0 | 1 | 1 | 0 | –
23 | CC1=C(Cl)C(O)N(c2cc(C(F)(F)F)c(Br)cn2)C1=O (stereo not drawn) [AA25, 1-[5-bromo-4-(trifluoromethyl)-2-pyridyl]-3-chloro-2-hydroxy-4-methyl-2H-pyrrol-5-one] | 1 | 2 | 5 | 3 | 3 | 1 | –
24 | CC1=C(Cl)C(O)N(c2cc(C(F)(F)F)c(Cl)cn2)C1=O (stereo not drawn) [AA26] | 1 | 2 | 5 | 3 | 3 | 0 | –
25 | CC1=C(Cl)C(O)N(c2cc(Br)ccn2)C1=O (stereo not drawn) [AA31] | – | 1 | 5 | 2 | 3 | 0 | 5
26 | CC1=C(Cl)C(O)N(c2ccc(Cl)cn2)C1=O (stereo not drawn) [AA32] | – | 0 | 0 | 0 | 2 | 0 | 2
27 | CC1=C(Cl)C(O)N(c2cc(Cl)ccn2)C1=O (stereo not drawn) [AA33] | – | 1 | 5 | 2 | 3 | 0 | 5
28 | CC1=C(Cl)C(O)N(c2cc(C(F)(F)F)ccn2)C1=O (stereo not drawn) [AA35] | – | 2 | 5 | 4 | 4 | 0 | 5
29 | CC1=C(Cl)C(O)N(c2ccc(C)cn2)C1=O (stereo not drawn) [AA36] | – | 1 | 4 | 2 | 1 | 0 | 3
30 | CC1=C(Cl)C(O)N(c2ccc(OC(F)(F)F)cn2)C1=O (stereo not drawn) [AA38] | 1 | 1 | 4 | 1 | 1 | 0 | –
